Test results: patent publication US20260166016A1, “GPR139 RECEPTOR AGONIST, PREPARATION METHOD THEREFOR, AND APPLICATION THEREOF” (NEUBO APPTECH CO., LTD., priority 2022, published 2026)

Legend:
acutely restrained mice = experiment: Pentobarbital sodium sleep test in mice under acute restraint stress; assay type: in vivo, mouse; conditions: male C57BL/6J mice; gavage of 0.1, 0.5, 2.5 mg/mL solutions at 0.1 mL/10 g; 30 minutes later acute restraint for 3 hours; pentobarbital sodium 40 mg/kg i.p.; dose-dependent; FIG. 2
Excerpt: Mouse: Male C57BL/6J; 8 weeks old; Weight: 20-25 g; Quantity: 31 pieces
Group 1, acute restraint sleeping placebo group, 7 mice, fed with regular care.
Group 2, acute restraint sleeping+low-dose of compound NRB181 group, 8 mice. The mice were fasted and deprived of water during the acute restraint period, and were kept normally at other times.
Group 3, acute restraint sleeping+moderate-dose of compound NRB181 group, 8 mice. The mice were fasted and deprived of water during the acute restraint period, and were kept normally at other times.
Group 4, acute restraint sleeping+high-dose of compound NRB181 group, 8 mice. The mice were fasted and deprived of water during the acute restraint period, and were kept normally at other times.
19.3.1 Preparation of placebo one day before the experiment: 0.5% CMC sodium+1% Tween80+saline.
On the day before the experiment, a high-dose solution of compound NRB181 was prepared: 6 mg of NRB181 was weighed and dissolved in 2.4 mL of placebo to prepare a 2.5 mg/mL solution of NRB181. Sonicated for 10 minutes and stored at 4° C. for later use.
The day before the experiment, a moderate-dose solution of compound NRB181 was prepared: […] of the above high-dose solution was taken and added to a 2 mL placebo centrifuge tube, mixed well, a 0.5 mg/mL NRB181 solution was prepared, sonicated for 10 minutes, and stored at 4° C. for later use. […]

[1] = test system: LPS induced mouse depression model; experiment: LPS induced mouse depression model, Forced Swim Test; assay type: in vivo; conditions: gavage 2.5 mg/mL at 0.1 mL/10 g twice daily Day 1-4, test 24 hours after injection, FIG. 5
Excerpt: Mice: Male Crl: CD1 (ICR) mice; 10-14 weeks old; Weight: 35-40 g; Quantity: 40 pieces
Group 1, placebo+saline group: 10 mice; divided into 2 cages, 5 mice per cage.
Group 2, placebo+lipopolysaccharide (LPS) group: 10 mice; divided into 2 cages, 5 mice per cage.
Group 3, compound NRB181+saline group: 10 mice; divided into 2 cages, 5 mice per cage.
Group 4, compound NRB181+lipopolysaccharide (LPS) group: 10 mice; divided into 2 cages, 5 mice per cage.
21.3.1 Preparation of placebo before experiment: 0.5% CMC sodium+1% Tween80+saline. In a clean bench, 4 tubes of 40 mL placebo were prepared using pyrogen-free centrifuge tubes and ultrapure water, totaling 160 mL, ensuring the absence of endotoxins (LPS). Sterile and endotoxin free centrifuge tubes were used to divide […] of placebo into 4 mL/tube, for a total of 30 tubes, and stored at 4° C. for future use.
LPS with a purity of >98% was required 3.2 mg of LPS was accurately weighed and dissolved in 40 mL of placebo to prepare a sterile solution of 0.08 mg/mL. After thorough mixing, the solution was divided into sterile and endotoxin-free centrifuge tubes, 4 mL per tube. […]
21.3.15 On the Day 5 of experiment, 24 hours after mice of Group 1 were injected with saline the day before, a Forced Swim Test was conducted on each group of mice starting from Group 1, and the immobility time of each mouse was recorded.

C[C@H](NC(=O)CNC(=O)c1cc(Cl)ccn1)c1c(F)cccc1F [NRB181]
sleep time of pentobarbital sodium anesthetized mice (acutely restrained mice): significantly increased
despair time (immobility time) in the Forced Swim Test [1]: significantly reduce the despair time
